{"source": "patent US7897358B2", "about": "“Canine transient receptor potential V2 (cTRPV2) and methods of screening for TRPV2 channel modulators” (Janssen Pharmaceutica N.V., priority 2007, dated 2011)", "key": {"[1]": {"system": "canine TRPV2 (cTRPV2)", "experiment": "Calcium influx functional assay (FLIPR) in HEK293 cells transiently transfected with cTRPV2", "assay_type": "cell-based", "conditions": "recombinant cTRPV2-expressing host cells", "description": "The expression construct, cTRPV2/pcDNA3.1 was then transfected into human embryonic kidney cells (HEK293, ATCC CRL-1573) with FuGene6 transfection reagent (Roche, Indianapolis, Ind.), according to the vendor's protocol. TRPV2-expressing HEK293 cells were cultured in DMEM supplemented with 10% fetal bovine serum, 100 units/ml penicillin and 100 μg/ml streptomycin at 37° C. with 5% CO2, and were analyzed using a calcium influx assay 48-72 hr. post-transfection.\nTransiently transfected cells were seeded in 384-well plates at a density of 1×10^4 cells/well and incubated overnight at 37° C. The following day, the cells were loaded with buffer and calcium dye, as recommended by the vendor (Molecular Devices, Sunnyvale, Calif.), in a final volume of 40 μl and incubated for 30 minutes at room temperature. The fluorescence intensity was measured by FLIPR before, during and after the addition of Δ^9-THC, which was added to the cells at a final concentration of 100 μM."}, "[2]": {"target": "T1, human TRPV2 (Homo sapiens, UniProt Q9Y5S1)", "T1 sequence (Q9Y5S1 1-764)": "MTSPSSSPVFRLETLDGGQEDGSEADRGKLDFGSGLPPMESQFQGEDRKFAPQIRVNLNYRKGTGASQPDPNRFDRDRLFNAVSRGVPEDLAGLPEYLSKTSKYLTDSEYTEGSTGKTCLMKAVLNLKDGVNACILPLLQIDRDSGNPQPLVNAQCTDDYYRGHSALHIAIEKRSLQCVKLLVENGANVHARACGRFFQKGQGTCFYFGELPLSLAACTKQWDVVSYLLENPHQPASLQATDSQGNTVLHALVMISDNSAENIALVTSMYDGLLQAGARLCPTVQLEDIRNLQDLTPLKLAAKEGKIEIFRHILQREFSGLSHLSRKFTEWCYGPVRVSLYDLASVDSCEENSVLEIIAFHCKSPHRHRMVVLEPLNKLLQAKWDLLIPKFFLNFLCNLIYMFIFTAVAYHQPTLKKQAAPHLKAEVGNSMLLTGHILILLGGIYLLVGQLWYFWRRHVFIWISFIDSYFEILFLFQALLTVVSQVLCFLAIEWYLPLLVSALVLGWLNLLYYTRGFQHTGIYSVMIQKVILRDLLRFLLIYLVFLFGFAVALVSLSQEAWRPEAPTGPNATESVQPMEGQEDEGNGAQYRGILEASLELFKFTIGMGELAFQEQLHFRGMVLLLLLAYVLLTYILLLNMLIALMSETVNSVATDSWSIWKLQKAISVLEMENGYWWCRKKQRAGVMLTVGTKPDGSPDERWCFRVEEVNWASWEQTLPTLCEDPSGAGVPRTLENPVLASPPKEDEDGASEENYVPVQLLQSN", "conditions": "cited from earlier work"}, "[3]": {"target": "T2, rat TRPV2 (Rattus norvegicus, UniProt Q9WUD2)", "T2 sequence (Q9WUD2 1-761)": "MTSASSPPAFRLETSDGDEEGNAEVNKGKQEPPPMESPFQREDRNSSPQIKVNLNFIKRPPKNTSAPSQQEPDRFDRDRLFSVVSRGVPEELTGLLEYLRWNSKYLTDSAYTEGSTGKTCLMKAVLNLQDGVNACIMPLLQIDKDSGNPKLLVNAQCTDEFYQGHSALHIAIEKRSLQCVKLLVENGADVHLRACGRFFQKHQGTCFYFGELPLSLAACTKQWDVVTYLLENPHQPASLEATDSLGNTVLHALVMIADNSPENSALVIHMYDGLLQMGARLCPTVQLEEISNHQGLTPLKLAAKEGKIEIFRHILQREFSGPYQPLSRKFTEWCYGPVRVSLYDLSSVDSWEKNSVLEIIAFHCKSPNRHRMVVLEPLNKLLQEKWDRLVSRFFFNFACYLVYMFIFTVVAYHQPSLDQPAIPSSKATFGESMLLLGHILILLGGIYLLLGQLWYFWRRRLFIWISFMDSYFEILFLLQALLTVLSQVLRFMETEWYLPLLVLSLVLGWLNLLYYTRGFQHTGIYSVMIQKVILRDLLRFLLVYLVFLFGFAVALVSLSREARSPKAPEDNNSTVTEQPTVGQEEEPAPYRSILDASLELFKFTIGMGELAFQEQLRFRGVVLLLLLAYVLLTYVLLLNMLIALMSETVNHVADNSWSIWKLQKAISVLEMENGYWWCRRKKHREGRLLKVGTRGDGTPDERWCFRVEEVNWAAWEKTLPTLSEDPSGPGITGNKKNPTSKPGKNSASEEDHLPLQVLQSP", "conditions": "cited from earlier work"}, "[4]": {"target": "T3, mouse TRPV2 (Mus musculus, UniProt Q9WTR1)", "T3 sequence (Q9WTR1 1-756)": "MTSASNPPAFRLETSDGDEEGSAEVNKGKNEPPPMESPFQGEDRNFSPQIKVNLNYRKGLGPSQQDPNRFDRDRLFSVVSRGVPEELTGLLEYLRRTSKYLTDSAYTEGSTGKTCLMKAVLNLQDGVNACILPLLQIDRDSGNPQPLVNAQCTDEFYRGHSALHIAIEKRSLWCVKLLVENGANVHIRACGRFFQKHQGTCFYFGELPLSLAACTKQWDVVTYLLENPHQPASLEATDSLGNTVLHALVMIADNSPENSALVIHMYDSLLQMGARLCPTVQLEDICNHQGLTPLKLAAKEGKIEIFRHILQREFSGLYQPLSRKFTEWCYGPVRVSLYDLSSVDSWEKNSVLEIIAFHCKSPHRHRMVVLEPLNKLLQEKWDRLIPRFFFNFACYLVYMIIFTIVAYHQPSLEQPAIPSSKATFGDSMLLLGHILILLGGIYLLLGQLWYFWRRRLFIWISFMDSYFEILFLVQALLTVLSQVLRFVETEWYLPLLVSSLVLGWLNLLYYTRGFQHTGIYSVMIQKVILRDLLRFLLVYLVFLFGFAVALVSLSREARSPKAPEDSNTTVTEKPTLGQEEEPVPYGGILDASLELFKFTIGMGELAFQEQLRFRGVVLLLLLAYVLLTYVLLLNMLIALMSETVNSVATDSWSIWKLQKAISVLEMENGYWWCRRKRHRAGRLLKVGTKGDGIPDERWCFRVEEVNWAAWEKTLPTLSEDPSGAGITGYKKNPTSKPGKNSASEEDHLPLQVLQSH", "conditions": "cited from earlier work"}}, "data": [{"smiles": "CCCCCc1cc(O)c2c(c1)OC(C)(C)[C@@H]1CCC(C)=C[C@@H]21", "note": "[Δ^9-THC, Δ^9-tetrahydrocannabinol]", "values": [{"measurement": "response of the recombinant TRPV2 cell system to agonist", "setting": "[1]", "result": "responded to Δ^9-THC in a dose-dependent manner"}, {"measurement": "activation of human TRPV2 (selective agonist)", "setting": "[2]", "result": "activate"}, {"measurement": "activation of rat TRPV2 (selective agonist)", "setting": "[3]", "result": "activate"}, {"measurement": "activation of mouse TRPV2 (selective agonist)", "setting": "[4]", "result": "activate"}]}]}
